As a reminder, the inhibition is the drop in the measured response relative to a control, in per cent. A higher inhibition goes with a strong effect.

Our source for the inhibition values is US8173808B2, “Substituted naphthalenyl-pyrimidine compounds” (ArQule, Inc., priority 2009, dated 2012).

In one assay the test system is DLD-1. Nature of the assay: MTS assay, DLD-1. It is filed as cell-based. The note with it: Homo sapiens, 72 hours, 1 Percent FBS. The procedure: (§1) Cells were maintained at 37° C., 5% CO2 in DMEM media supplemented with 1% fetal bovine serum, penicillin/streptomycin and fungizone (Invitrogen). Cells were seeded into 96-well tissue culture plates at 3000 per well and cultured at 37° C. for 18 hours. Test compounds were dissolved and diluted to 300× in DMSO then diluted 1:40 in DMEM. Cells were incubated with test compounds for 72 hours followed by incubation with tetrazolium compound (3-(4,5-dimethylthiazol-2-yl)-5-(3-carboxymethoxyphenyl)-2-(4-sulfophenyl)-2H-tetrazolium, inner salt; MTS) and the electron coupling reagent, phenazine methosulfate (PMS) for 4 hours. […] The ability of compounds to inhibit cell growth in this assay is correlated with the reduction of dehydrogenase enzyme activity found in metabolically active cells. The measurement of the absorbance of the formazan was assessed using a Victor (Perkin Elmer) microplate reader at 492 nm. The calculated IC50 value is the concentration of the test compound that causes a 50% decrease in the absorbance.
For orientation: Tetrazolium assays rely on reduction of a dye to a coloured formazan, in cell work by metabolically active cells.

A further assay concerns MDA-MB-231. The experiment in a line: MTS assay, MDA-MB-231. It is filed as cell-based. To be noted: Homo sapiens, 72 hours, 1 Percent FBS. How it is done:
as §1

Turning to `CNc1nccc(-c2cc(NC(=O)CN3CCC(N4CCN(C)CC4)CC3)c3cc(OC)ccc3c2)n1` [Compound 45, N-{7-methoxy-3-[2-(methylamino)pyrimidin-4-yl]-1-naphthyl}-2-[4-(4-methylpiperazin-1-yl)piperidin-1-yl]acetamide], the inhibition at 10 µM in the assay with DLD-1 worked out at 98%; in the assay on MDA-MB-231, 99%.

As to `CNc1nccc(-c2cc(NC3CCN(c4ncnc5nc[nH]c45)CC3)c3cc(OC)ccc3c2)n1` [Compound 157, 4-(6-methoxy-4-{[1-(9H-purin-6-yl)piperidin-4-yl]amino}-2-naphthyl)-N-methylpyrimidin-2-amine], the inhibition at 10 µM in the assay on DLD-1 is 46%; with MDA-MB-231, 75%.

Take `COc1ccc2cc(-c3ccnc(NC4CCN(Cc5ccccc5)CC4)n3)cc(N3CCOCC3)c2c1` [Compound 24, N-(1-benzylpiperidin-4-yl)-4-(6-methoxy-4-morpholin-4-yl-2-naphthyl)pyrimidin-2-amine]: the inhibition at 10 µM came to 97% in the assay with DLD-1 and 95% with MDA-MB-231.

As to `COc1ccc2cc(-c3ccnc(NCc4cncn4C)n3)cc(N3CCOCC3)c2c1` [Compound 16, 4-(6-methoxy-4-morpholin-4-yl-2-naphthyl)-N-[(1-methyl-1H-imidazol-5-yl)methyl]pyrimidin-2-amine], the inhibition at 10 µM with DLD-1 is 98%; in the assay with MDA-MB-231 it was 96%.

Consider `CNc1nccc(-c2cc(NC3CCN(c4ncnc5c(C)csc45)CC3)c3cc(OC)ccc3c2)n1` [Compound 164, 4-(6-methoxy-4-{[l-(7-methylthieno[3,2-d]pyrimidin-4-yl)piperidin-4-yl]amino}-2-naphthyl)-N-methylpyrimidin-2-amine], for which the inhibition at 10 µM is 98% with DLD-1 and 90% in the assay on MDA-MB-231.

Regarding `COc1cccc(CNc2nccc(-c3cc(NC(=O)OC(C)(C)C)c4cc(OC)ccc4c3)n2)c1` [Compound 99, tert-butyl (7-methoxy-3-{2-[(3-methoxybenzyl)amino]pyrimidin-4-yl}-1-naphthyl)carbamate], the figures for the inhibition at 10 µM in the assay with DLD-1 and with MDA-MB-231 were 97% and 98%, respectively.

Take `COCCNc1nccc(-c2cc(N3CCNCC3)c3cc(OC)ccc3c2)n1` [Compound 119, N-(2-methoxyethyl)-4-(6-methoxy-4-piperazin-1-yl-2-naphthyl)pyrimidin-2-amine]: the inhibition at 10 µM with DLD-1 was 94%; in the assay on MDA-MB-231 it was 93%.

In the case of `CNc1nccc(-c2cc(NC(=O)CN3CCN(CCc4cccs4)CC3)c3cc(OC)ccc3c2)n1` [Compound 46, N-{7-methoxy-3-[2-(methylamino)pyrimidin-4-yl]-1-naphthyl}-2-{4-[2-(2-thienyl)ethyl]piperazin-1-yl}acetamide], the inhibition at 10 µM with DLD-1 and in the assay with MDA-MB-231 was 99% throughout.

In the case of `CCN1CCCC(Nc2nccc(-c3cc(N4CCNCC4)c4cc(OC)ccc4c3)n2)C1` (centres unmarked) [Compound 131, N-(1-ethylpiperidin-3-yl)-4-(6-methoxy-4-piperazin-1-yl-2-naphthyl)pyrimidin-2-amine], the figures for the inhibition at 10 µM in the assay on DLD-1 and in the assay with MDA-MB-231 were 92% and 97%, respectively.

With `COc1ccc2cc(-c3ccnc(NCc4ccccc4C)n3)cc(N3CCNCC3)c2c1` [Compound 128, 4-(6-methoxy-4-piperazin-1-yl-2-naphthyl)-N-(2-methylbenzyl)pyrimidin-2-amine], the inhibition at 10 µM came out at 97% in the assay with DLD-1 and 98% in the assay on MDA-MB-231.

In the case of `COc1ccc2cc(-c3ccnc(NCc4ccc(OC)c(OC)c4)n3)cc(N3CCOCC3)c2c1` [Compound 9, N-(3,4-dimethoxybenzyl)-4-(6-methoxy-4-morpholin-4-yl-2-naphthyl)pyrimidin-2-amine], the values for the inhibition at 10 µM with DLD-1 and in the assay with MDA-MB-231 were 99% and 82%, respectively.

Regarding `CCCCN(C)CCNCC(=O)Nc1cc(-c2ccnc(NC)n2)cc2ccc(OC)cc12` [Compound 51, N~2~-{2-[butyl(methyl)amino]ethyl}-N-{7-methoxy-3-[2-(methylamino)pyrimidin-4-yl]-1-naphthyl}glycinamide], the values for the inhibition at 10 µM in the assay with DLD-1 and with MDA-MB-231 were 98% and 93%, respectively.

Turning to `COc1ccc2cc(-c3ccnc(NCCN(C)C)n3)cc(N3CCNCC3)c2c1` [Compound 125, N′-[4-(6-methoxy-4-piperazin-1-yl-2-naphthyl)pyrimidin-2-yl]-N,N-dimethylethane-1,2-diamine], the inhibition at 10 µM with DLD-1 and with MDA-MB-231 was 96% throughout.

Take `CNc1nccc(-c2cc(NC(=O)CNc3cccnc3)c3cc(OC)ccc3c2)n1` [Compound 54, N-{7-methoxy-3-[2-(methylamino)pyrimidin-4-yl]-1-naphthyl}-N~2~-pyridin-3-ylglycinamide]: the inhibition at 10 µM stood at 75% with DLD-1 and 65% in the assay with MDA-MB-231.

Regarding `COc1ccc2cc(-c3ccnc(NCc4ccccn4)n3)cc(N3CCOCC3)c2c1` [Compound 25, 4-(6-methoxy-4-morpholin-4-yl-2-naphthyl)-N-(pyridin-2-ylmethyl)pyrimidin-2-amine], the results for the inhibition at 10 µM in the assay on DLD-1 and in the assay with MDA-MB-231 were 82% and 74%, respectively.

With `COc1ccc2cc(-c3ccnc(NCc4ccccn4)n3)cc(N3CCNCC3)c2c1` [Compound 120, 4-(6-methoxy-4-piperazin-1-yl-2-naphthyl)-N-(pyridin-2-ylmethyl)pyrimidin-2-amine], the inhibition at 10 µM was 83% in the assay on DLD-1 and 78% in the assay with MDA-MB-231.

For the molecule `COc1ccc2cc(-c3ccnc(NCCc4cccnc4)n3)cc(N3CCNCC3)c2c1` [Compound 122, 4-(6-methoxy-4-piperazin-1-yl-2-naphthyl)-N-(2-pyridin-3-ylethyl)pyrimidin-2-amine], the inhibition at 10 µM worked out at 94% in the assay with DLD-1 and 95% with MDA-MB-231.

Turning to `COc1ccc2cc(-c3ccnc(NC4CCN(C)CC4)n3)cc(N3CCNCC3)c2c1` [Compound 116, 4-(6-methoxy-4-piperazin-1-yl-2-naphthyl)-N-(1-methylpiperidin-4-yl)pyrimidin-2-amine], the inhibition at 10 µM with DLD-1 and in the assay with MDA-MB-231 was 97% in each case.

As for `CCN(CC)CCCCNCC(=O)Nc1cc(-c2ccnc(NC)n2)cc2ccc(OC)cc12` [Compound 73, N~2~-[4-(diethylamino)butyl]-N-{7-methoxy-3-[2-(methylamino)pyrimidin-4-yl]-1-naphthyl}glycinamide], the inhibition at 10 µM in the assay with DLD-1 and in the assay on MDA-MB-231 was 98% each time.

With `COc1ccc2cc(-c3ccnc(NCCc4cccc(OC)c4OC)n3)cc(N3CCNCC3)c2c1` [Compound 129, N-[2-(2,3-dimethoxyphenyl)ethyl]-4-(6-methoxy-4-piperazin-1-yl-2-naphthyl)pyrimidin-2-amine], the results for the inhibition at 10 µM with DLD-1 and in the assay with MDA-MB-231 were 97% and 99%, respectively.

Regarding `CNc1nccc(-c2cc(NC(=O)CN3CCN(CCCN(C)C)CC3)c3cc(OC)ccc3c2)n1` [Compound 65, 2-{4-[3-(dimethylamino)propyl]piperazin-1-yl}-N-{7-methoxy-3-[2-(methylamino)pyrimidin-4-yl]-1-naphthyl}acetamide], the inhibition at 10 µM in the assay on DLD-1 and in the assay with MDA-MB-231 was 98% in each case.

On to `CNc1nccc(-c2cc(NC(=O)CNc3nc4ccccc4n3C)c3cc(OC)ccc3c2)n1` [Compound 58, N-{7-methoxy-3-[2-(methylamino)pyrimidin-4-yl]-1-naphthyl}-N~2~-(1-methyl-1H-benzimidazol-2-yl)glycinamide], for which the inhibition at 10 µM was 98% with DLD-1 and 99% in the assay on MDA-MB-231.

Take `CNc1nccc(-c2cc(NC(=O)CN3CCN(CCN(C)C)CC3)c3cc(OC)ccc3c2)n1` [Compound 67, 2-{4-[2-(dimethylamino)ethyl]piperazin-1-yl}-N-{7-methoxy-3-[2-(methylamino)pyrimidin-4-yl]-1-naphthyl}acetamide]: the figures for the inhibition at 10 µM in the assay on DLD-1 and with MDA-MB-231 were 31% and 53%, respectively.

For `COc1ccc(CNc2nccc(-c3cc(N4CCOCC4)c4cc(OC)ccc4c3)n2)cc1` [Compound 28, N-(4-methoxybenzyl)-4-(6-methoxy-4-morpholin-4-yl-2-naphthyl)pyrimidin-2-amine], the inhibition at 10 µM with DLD-1 was determined as 98%; in the assay with MDA-MB-231, 99%.

Consider `COc1ccc2cc(-c3ccnc(NC4CCN(Cc5ccccc5)CC4)n3)cc(N3CCNCC3)c2c1` [Compound 117, N-(1-benzylpiperidin-4-yl)-4-(6-methoxy-4-piperazin-1-yl-2-naphthyl)pyrimidin-2-amine], for which the inhibition at 10 µM with DLD-1 and in the assay on MDA-MB-231 was 97% each time.

Consider `COc1ccc(CNc2nccc(-c3cc(NC(=O)OC(C)(C)C)c4cc(OC)ccc4c3)n2)cc1` [Compound 104, tert-butyl (7-methoxy-3-{2-[(4-methoxybenzyl)amino]pyrimidin-4-yl}-1-naphthyl)carbamate], for which the inhibition at 10 µM in the assay on DLD-1 amounted to 48%; with MDA-MB-231, 30%.

Regarding `COc1ccc2cc(-c3ccnc(NCC(C)(C)CN(C)C)n3)cc(NC(=O)OC(C)(C)C)c2c1` [Compound 105, tert-butyl [3-(2-{[3-(dimethylamino)-2,2-dimethylpropyl]amino}pyrimidin-4-yl)-7-methoxy-1-naphthyl]carbamate], the results for the inhibition at 10 µM with DLD-1 and with MDA-MB-231 were 84% and 89%, respectively.

`COc1ccc2cc(-c3ccnc(NC4CC(C)(C)N(C)C(C)(C)C4)n3)cc(N3CCOCC3)c2c1` [Compound 26, 4-(6-methoxy-4-morpholin-4-yl-2-naphthyl)-N-(1,2,2,6,6-pentamethylpiperidin-4-yl)pyrimidin-2-amine]: the results for the inhibition at 10 µM in the assay with DLD-1 and with MDA-MB-231 were 92% and 98%, respectively.
